In ChEMBL document CHEMBL4190187, “Discovery of pyrazolopyrimidine derivatives as novel inhibitors of ataxia telangiectasia and rad3 related protein (ATR)” (Bioorg Med Chem Lett, 2017):

What was measured:
[1] = biological target: Mitogen-activated protein kinase 1 (Homo sapiens) (UniProt P28482); assay: Inhibition of recombinant full-length human MAPK1 at 1 uM using myelin basic protein as substrate after 40 mins in presence of [gamma-33P]ATP by scintillation counting method
[2] = tested on: Mast/stem cell growth factor receptor Kit (Homo sapiens), P10721 [V560G]; assay: Inhibition of recombinant human cKit V560G mutant (544 to end residues) at 1 uM using GGMEDIYFEFMGGKKK as substrate after 40 mins in presence of [gamma-33P]ATP by scintillation counting method
Chain of Mast/stem cell growth factor receptor Kit (Homo sapiens), P10721 [V560G] (P10721 whole entry V560G): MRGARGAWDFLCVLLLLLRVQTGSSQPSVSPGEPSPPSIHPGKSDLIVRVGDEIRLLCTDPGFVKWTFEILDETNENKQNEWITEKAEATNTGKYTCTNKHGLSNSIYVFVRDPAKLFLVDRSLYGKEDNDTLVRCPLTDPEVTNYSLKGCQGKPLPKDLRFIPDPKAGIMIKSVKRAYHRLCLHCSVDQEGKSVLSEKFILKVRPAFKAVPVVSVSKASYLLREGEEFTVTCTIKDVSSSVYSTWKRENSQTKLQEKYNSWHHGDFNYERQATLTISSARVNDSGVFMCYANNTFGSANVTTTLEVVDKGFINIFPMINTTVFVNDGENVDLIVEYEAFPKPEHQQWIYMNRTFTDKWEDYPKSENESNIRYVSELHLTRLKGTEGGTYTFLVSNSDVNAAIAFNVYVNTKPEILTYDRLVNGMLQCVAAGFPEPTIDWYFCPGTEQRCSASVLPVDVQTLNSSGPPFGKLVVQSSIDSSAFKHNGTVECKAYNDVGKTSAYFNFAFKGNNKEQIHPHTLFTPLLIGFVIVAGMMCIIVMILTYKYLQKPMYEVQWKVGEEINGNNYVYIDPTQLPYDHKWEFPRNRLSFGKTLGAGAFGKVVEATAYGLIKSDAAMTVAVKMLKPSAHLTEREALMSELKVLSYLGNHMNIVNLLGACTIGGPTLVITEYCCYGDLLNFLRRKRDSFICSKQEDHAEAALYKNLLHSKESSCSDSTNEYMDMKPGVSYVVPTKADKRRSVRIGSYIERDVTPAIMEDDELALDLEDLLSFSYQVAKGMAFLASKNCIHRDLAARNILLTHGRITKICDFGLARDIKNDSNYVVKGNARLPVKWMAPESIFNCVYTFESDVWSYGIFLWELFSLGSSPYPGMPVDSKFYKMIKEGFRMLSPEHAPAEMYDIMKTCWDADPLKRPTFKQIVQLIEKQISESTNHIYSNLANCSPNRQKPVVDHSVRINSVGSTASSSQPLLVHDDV

[3] = biological target: CDK6/cyclin D3 (Homo sapiens) (UniProt P30281+Q00534); assay: Inhibition of recombinant full-length human CDK6/Cyclin D3 at 1 uM using histone H1 as substrate after 40 mins in presence of [gamma-33P]ATP by scintillation counting method; type: protein-complex assay
[4] = biological target: Tyrosine-protein kinase JAK1 (Homo sapiens) (UniProt P23458); assay: Inhibition of recombinant human JAK1 (866 to end residues) at 1 uM using GEEPLYWSFPAKKK as substrate after 40 mins in presence of [gamma-33P]ATP by scintillation counting method
[5] = biological target: Ephrin type-A receptor 5 (Homo sapiens) (UniProt P54756); assay: Inhibition of recombinant human EPHA5 (655 to 956 residues) at 1 uM using poly(Glu,Tyr) 4:1 as substrate after 40 mins in presence of [gamma-33P]ATP by scintillation counting method
Saccharomyces cerevisiae = assay: Inhibition of recombinant Saccharomyces cerevisiae CK1alpha (2 to 298 residues) at 1 uM using KRRRALS(p)VASLPGL as substrate after 40 mins in presence of [gamma-33P]ATP by scintillation counting method
[6] = biological target: Serine/threonine-protein kinase B-raf (Homo sapiens) (UniProt P15056); assay: Inhibition of recombinant human B-raf (416 to end residues) at 1 uM using myelin basic protein as substrate after 40 mins in presence of [gamma-33P]ATP by scintillation counting method
Chain of Serine/threonine-protein kinase B-raf (Homo sapiens) (P15056 whole entry, the tested form may be a part, canonical isoform): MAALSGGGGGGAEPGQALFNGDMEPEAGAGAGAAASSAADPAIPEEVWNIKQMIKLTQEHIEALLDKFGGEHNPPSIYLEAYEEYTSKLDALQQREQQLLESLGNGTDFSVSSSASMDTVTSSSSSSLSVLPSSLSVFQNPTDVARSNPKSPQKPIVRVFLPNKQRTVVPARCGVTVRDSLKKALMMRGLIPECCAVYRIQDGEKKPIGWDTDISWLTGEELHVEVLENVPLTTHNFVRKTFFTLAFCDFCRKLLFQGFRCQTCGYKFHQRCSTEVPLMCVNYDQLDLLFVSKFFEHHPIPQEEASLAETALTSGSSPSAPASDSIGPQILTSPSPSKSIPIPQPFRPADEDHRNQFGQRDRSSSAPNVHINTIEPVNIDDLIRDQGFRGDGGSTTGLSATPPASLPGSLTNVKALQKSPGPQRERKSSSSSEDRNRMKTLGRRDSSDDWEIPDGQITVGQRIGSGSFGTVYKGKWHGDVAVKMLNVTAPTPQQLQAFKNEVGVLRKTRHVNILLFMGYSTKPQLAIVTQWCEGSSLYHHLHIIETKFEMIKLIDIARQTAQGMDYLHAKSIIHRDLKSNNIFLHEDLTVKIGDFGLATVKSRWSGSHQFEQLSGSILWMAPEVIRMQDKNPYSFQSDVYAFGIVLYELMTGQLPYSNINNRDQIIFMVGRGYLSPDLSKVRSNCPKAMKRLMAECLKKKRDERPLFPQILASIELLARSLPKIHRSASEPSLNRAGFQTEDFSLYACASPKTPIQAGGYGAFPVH

[7] = biological target: Phosphorylase b kinase gamma catalytic chain, liver/testis isoform (Homo sapiens) (UniProt P15735); assay: Inhibition of recombinant human PhKgamma2 (1 to 301 residues) at 1 uM using KKLNRTLSFAEPG as substrate after 40 mins in presence of [gamma-33P]ATP by scintillation counting method
[8] = tested on: Mast/stem cell growth factor receptor Kit (Homo sapiens), P10721 [V654A]; assay: Inhibition of recombinant human cKit V654A mutant (544 to end residues) at 1 uM using GGMEDIYFEFMGGKKK as substrate after 40 mins in presence of [gamma-33P]ATP by scintillation counting method
Chain of Mast/stem cell growth factor receptor Kit (Homo sapiens), P10721 [V654A] (P10721 whole entry V654A): as the sequence (P10721 whole entry V560G) above, with G560V, V654A counted along it

[9] = biological target: Death-associated protein kinase 2 (Homo sapiens) (UniProt Q9UIK4); assay: Inhibition of recombinant full-length human DAPK2 at 1 uM using […] after 40 mins in presence of [gamma-33P]ATP by scintillation counting method
Chain of Death-associated protein kinase 2 (Homo sapiens) (Q9UIK4 whole entry, looked up): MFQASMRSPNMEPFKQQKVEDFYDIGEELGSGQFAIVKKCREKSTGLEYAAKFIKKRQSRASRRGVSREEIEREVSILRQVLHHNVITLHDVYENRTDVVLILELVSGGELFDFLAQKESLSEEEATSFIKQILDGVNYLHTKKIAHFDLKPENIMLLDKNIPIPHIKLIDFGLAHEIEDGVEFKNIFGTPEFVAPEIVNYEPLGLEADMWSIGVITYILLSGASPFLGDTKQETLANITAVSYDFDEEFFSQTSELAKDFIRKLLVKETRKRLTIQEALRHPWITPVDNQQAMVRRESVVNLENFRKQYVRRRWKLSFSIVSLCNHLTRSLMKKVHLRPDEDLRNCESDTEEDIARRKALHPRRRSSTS

[10] = biological target: Serine/threonine-protein kinase Nek7 (Homo sapiens) (UniProt Q8TDX7); assay: Inhibition of recombinant human NEK7 (2 to end residues) at 1 uM using FLAKSFGSPNRAYKK as substrate after 40 mins in presence of [gamma-33P]ATP by scintillation counting method
Chain of Serine/threonine-protein kinase Nek7 (Homo sapiens) (Q8TDX7 whole entry, looked up, the tested form may be a part): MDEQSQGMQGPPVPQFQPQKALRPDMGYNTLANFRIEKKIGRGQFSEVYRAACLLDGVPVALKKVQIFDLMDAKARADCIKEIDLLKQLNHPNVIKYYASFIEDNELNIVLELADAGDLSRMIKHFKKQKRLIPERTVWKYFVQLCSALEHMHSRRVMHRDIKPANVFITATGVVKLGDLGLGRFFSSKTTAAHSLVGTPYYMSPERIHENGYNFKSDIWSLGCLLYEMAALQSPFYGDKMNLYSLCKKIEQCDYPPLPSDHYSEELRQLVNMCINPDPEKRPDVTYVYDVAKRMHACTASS

[11] = biological target: Tyrosine-protein kinase HCK (Homo sapiens) (UniProt P08631); assay: Inhibition of recombinant human activated Hck (230 to 497 residues) at 1 uM using GGMEDIYFEFMGGKKK as substrate after 40 mins in presence of [gamma-33P]ATP by scintillation counting method
Chain of Tyrosine-protein kinase HCK (Homo sapiens) (P08631 2-526 limits assumed): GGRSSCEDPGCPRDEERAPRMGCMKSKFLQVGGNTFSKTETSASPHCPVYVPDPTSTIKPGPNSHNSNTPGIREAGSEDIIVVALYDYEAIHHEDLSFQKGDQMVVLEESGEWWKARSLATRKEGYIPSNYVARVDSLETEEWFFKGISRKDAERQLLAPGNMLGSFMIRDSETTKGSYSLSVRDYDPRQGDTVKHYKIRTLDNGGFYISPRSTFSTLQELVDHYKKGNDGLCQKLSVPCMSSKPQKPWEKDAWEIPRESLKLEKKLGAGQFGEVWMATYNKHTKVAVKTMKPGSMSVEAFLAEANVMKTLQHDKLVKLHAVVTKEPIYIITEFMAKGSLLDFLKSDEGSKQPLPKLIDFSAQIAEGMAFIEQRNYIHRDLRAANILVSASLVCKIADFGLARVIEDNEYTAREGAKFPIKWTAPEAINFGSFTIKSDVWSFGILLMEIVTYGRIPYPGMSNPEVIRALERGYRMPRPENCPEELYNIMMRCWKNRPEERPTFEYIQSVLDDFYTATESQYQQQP

[12] = tested on: Tyrosine-protein kinase ABL1 (Homo sapiens), P00519 [M351T]; assay: Inhibition of recombinant human Abl M351T mutant (27 to end residues) at 1 uM using EAIYAAPFAKKK as substrate after 40 mins in presence of [gamma-33P]ATP by scintillation counting method
[13] = biological target: Mitogen-activated protein kinase 1 (Mus musculus) (UniProt P63085); assay: Inhibition of recombinant full-length mouse MAPK2 at 1 uM using myelin basic protein as substrate after 40 mins in presence of [gamma-33P]ATP by scintillation counting method
[14] = biological target: Bone morphogenetic protein receptor type-1B (Homo sapiens) (UniProt O00238); assay: Inhibition of recombinant human ALK6 (148 to end residues) at 1 uM using casein as substrate after 40 mins in presence of [gamma-33P]ATP by scintillation counting method
[15] = biological target: Serine/threonine-protein kinase PAK 4 (Homo sapiens) (UniProt O96013); assay: Inhibition of recombinant human PAK4 (295 to end residues) at 1 uM using myelin basic protein as substrate after 40 mins in presence of [gamma-33P]ATP by scintillation counting method
Chain of Serine/threonine-protein kinase PAK 4 (Homo sapiens) (O96013 whole entry, looked up): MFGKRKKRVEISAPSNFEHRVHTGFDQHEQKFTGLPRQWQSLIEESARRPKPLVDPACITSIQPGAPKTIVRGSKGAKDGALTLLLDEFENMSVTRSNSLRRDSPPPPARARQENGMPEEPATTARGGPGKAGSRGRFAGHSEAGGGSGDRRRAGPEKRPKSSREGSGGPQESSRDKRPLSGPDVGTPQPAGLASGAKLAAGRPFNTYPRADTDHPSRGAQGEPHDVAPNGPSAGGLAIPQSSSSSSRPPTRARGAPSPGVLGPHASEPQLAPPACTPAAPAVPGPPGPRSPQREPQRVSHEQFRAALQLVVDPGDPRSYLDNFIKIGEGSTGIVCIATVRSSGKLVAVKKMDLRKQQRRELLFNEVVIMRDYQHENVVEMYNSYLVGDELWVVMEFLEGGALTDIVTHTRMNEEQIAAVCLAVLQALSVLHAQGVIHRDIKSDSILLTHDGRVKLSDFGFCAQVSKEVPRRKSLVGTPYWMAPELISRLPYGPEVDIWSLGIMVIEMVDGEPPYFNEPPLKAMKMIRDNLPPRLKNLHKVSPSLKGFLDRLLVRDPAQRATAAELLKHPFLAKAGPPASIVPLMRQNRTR

[16] = tested on: Angiopoietin-1 receptor (Homo sapiens), Q02763 [Y897S]; assay: Inhibition of recombinant activated human Tie2 Y897S mutant (771 to end residues) at 1 uM using EFPIYDFLPAKKK as substrate after 40 mins in presence of [gamma-33P]ATP by scintillation counting method
[17] = biological target: Epithelial discoidin domain-containing receptor 1 (Homo sapiens) (UniProt Q08345); assay: Inhibition of recombinant human DDR1 (492 to end residues) at 1 uM using KKKSPGEYVNIEFG as substrate after 40 mins in presence of [gamma-33P]ATP by scintillation counting method
[18] = biological target: Rhodopsin kinase GRK1 (Homo sapiens) (UniProt Q15835); assay: Inhibition of recombinant full-length human GRK1 at 1 uM using KKKKERLLDDRHDSGLDSMKDEE as substrate after 40 mins in presence of [gamma-33P]ATP by scintillation counting method
[19] = biological target: Serine/threonine-protein kinase tousled-like 1 (Homo sapiens) (UniProt Q9UKI8); assay: Inhibition of recombinant full-length human TLK1 at 1 uM using casein as substrate after 40 mins in presence of [gamma-33P]ATP by scintillation counting method
Chain of Serine/threonine-protein kinase tousled-like 1 (Homo sapiens) (Q9UKI8 whole entry): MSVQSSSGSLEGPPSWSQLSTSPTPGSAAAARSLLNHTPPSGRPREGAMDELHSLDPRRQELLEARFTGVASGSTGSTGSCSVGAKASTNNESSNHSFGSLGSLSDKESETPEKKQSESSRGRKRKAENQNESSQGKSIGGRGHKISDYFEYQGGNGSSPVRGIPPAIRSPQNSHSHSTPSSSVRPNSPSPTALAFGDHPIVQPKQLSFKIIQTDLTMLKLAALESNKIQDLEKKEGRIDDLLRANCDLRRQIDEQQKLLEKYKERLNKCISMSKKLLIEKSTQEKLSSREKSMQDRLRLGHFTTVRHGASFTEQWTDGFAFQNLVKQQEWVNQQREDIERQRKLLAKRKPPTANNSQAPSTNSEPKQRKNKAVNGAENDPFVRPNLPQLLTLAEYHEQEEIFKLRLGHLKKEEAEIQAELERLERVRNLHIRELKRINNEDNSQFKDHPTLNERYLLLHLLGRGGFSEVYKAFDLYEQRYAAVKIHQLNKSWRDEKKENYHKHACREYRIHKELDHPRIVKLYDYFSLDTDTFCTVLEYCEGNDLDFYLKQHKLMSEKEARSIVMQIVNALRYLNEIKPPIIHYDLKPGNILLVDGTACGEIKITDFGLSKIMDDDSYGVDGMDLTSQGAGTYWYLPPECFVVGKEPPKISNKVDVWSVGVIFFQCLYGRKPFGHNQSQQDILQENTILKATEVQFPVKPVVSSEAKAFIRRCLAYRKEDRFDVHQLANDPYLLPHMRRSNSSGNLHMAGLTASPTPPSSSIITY

[20] = tested on: Epidermal growth factor receptor (Homo sapiens), P00533 [L858R]; assay: Inhibition of recombinant human EGFR L858R mutant (696 to end residues) at 1 uM using poly(Glu,Tyr) 4:1 as substrate after 40 mins in presence of [gamma-33P]ATP by scintillation counting method
[21] = biological target: Interferon-induced, double-stranded RNA-activated protein kinase (Homo sapiens) (UniProt P19525); assay: Inhibition of recombinant human PKR (501 to end residues) at 1 uM using AKRRRLSSLRA as substrate after 40 mins in presence of [gamma-33P]ATP by scintillation counting method
Chain of Interferon-induced, double-stranded RNA-activated protein kinase (Homo sapiens) (P19525 whole entry): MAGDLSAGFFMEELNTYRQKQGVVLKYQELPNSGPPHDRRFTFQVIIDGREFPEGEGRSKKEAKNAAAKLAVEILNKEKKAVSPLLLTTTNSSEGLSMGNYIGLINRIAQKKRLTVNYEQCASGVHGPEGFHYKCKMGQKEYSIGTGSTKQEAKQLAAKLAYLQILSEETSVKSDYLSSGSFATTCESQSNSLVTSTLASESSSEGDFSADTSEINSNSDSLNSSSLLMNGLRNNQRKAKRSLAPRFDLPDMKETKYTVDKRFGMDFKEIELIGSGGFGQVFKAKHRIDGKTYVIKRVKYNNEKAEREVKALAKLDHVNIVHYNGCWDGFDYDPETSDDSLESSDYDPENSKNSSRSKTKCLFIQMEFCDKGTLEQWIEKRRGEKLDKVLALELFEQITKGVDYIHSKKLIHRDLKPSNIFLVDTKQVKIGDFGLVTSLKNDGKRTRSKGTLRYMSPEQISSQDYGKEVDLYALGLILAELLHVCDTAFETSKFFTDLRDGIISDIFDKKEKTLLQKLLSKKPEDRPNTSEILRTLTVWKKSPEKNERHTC

[22] = biological target: Tyrosine-protein kinase FRK (Homo sapiens) (UniProt P42685); assay: Inhibition of recombinant human PTK5 (218 to end residues) at 1 uM using GGEEEEYFELVKKKK as substrate after 40 mins in presence of [gamma-33P]ATP by scintillation counting method
[23] = biological target: Mitogen-activated protein kinase kinase kinase 7 (Homo sapiens) (UniProt O43318); assay: Inhibition of recombinant human TAK1 (1 to 303 residues) at 1 uM using casein as substrate after 40 mins in presence of [gamma-33P]ATP by scintillation counting method

`CS(=O)(=O)c1ccc(-n2nc(-c3cnc4[nH]ccc4c3)c3c(N)ncnc32)cc1` showed an inhibition [1] of 2%, an inhibition [2] of 76% and an inhibition [3] of -6%. The inhibition [4] was 36%, the inhibition [5] was 8% and the inhibition (Saccharomyces cerevisiae) was 38%. The inhibition [6] was 89%, the inhibition [7] was 16% and the inhibition [8] was 30%. The inhibition [9] was 4%, the inhibition [10] was -1% and the inhibition [11] was 93%. It also gave an inhibition [12] of 77%, an inhibition [13] of 1% and an inhibition [14] of 18%. It also gave an inhibition [15] of 45%, an inhibition [16] of 1% and an inhibition [17] of 92%. The inhibition [18] was 10%, the inhibition [19] was 3% and the inhibition [20] was 5%. It also gave an inhibition [21] of 13%, an inhibition [22] of 94% and an inhibition [23] of -3%.
